Source: patent publication US20140349924A1 (Novo Nordisk A/S, priority 2007, published 2014)
Values belong to the compound of their own block, whether it stands above or below them.

Key:
[1] = 293.2 Kelvin; static electric fields or relatively low frequencies; cited from earlier work
[2] = freshly excised rat gut sacs (small intestine) incubated in culture medium pH 7.4; conditions: 37° C, up to 2 h
[3] = freeze dried from aqueous solutions with pH moved below the isoelectric point; cited from earlier work

Compound: CO [Methanol]
Dielectricity constant, ε* [1]: 33.0

fragment found [2]: degradation product (peak ˜5218), 2 h
Compound: Asp^B28 human insulin

Compound: lysozyme: lysozyme lyophilized from aqueous solution, literature example (Klibanov et al)
Solubility in 1,5 pentanediol [3]: markedly increased
